From patent US20250136578A1 (Kolm Therapeutics Inc., priority 2023, published 2025)

Experiments:
AR / CBP ternary complex = AR / CBP ternary complex (Homo sapiens, UniProt P10275+Q92793); experiment: Ternary complex formation assay (sandwich ELISA, AR capture, CBP antibody detection) in VCaP cell lysates; assay type: cell-based; conditions: treated 1.5 hours, rabbit CBP or p300 antibody detection, average, read-out: Average Ternary Complex
Summary of the method: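 Sandwich ELISA: plates were coated with anti-AR antibody (AR441) and given lysates of VCaP cells treated 1.5 h with bifunctional compound in charcoal-stripped serum. Co-captured CBP or p300 was probed with rabbit mAbs and HRP secondary. Chemifluorescent signal (ex 570/em 585) was read at 0, 5 and 15 min.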

VCaP cells = experiment: VCaP growth inhibition assay (CTG); assay type: cell-based; conditions: Homo sapiens, 216 h, 30 pM R1881, 9 days
Summary of the method: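 Growth was measured by CTG luminescence after a 9-day exposure of VCaP cells to compound (final 10 fM–100 nM, fivefold steps) in the presence of 30 pM final R1881, in phenol red-free DMEM/5% CSS. IC50 values were derived by nonlinear 4-parameter regression of RLU against concentration.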

AR / CBP ternary complex, sequence (P10275 whole entry): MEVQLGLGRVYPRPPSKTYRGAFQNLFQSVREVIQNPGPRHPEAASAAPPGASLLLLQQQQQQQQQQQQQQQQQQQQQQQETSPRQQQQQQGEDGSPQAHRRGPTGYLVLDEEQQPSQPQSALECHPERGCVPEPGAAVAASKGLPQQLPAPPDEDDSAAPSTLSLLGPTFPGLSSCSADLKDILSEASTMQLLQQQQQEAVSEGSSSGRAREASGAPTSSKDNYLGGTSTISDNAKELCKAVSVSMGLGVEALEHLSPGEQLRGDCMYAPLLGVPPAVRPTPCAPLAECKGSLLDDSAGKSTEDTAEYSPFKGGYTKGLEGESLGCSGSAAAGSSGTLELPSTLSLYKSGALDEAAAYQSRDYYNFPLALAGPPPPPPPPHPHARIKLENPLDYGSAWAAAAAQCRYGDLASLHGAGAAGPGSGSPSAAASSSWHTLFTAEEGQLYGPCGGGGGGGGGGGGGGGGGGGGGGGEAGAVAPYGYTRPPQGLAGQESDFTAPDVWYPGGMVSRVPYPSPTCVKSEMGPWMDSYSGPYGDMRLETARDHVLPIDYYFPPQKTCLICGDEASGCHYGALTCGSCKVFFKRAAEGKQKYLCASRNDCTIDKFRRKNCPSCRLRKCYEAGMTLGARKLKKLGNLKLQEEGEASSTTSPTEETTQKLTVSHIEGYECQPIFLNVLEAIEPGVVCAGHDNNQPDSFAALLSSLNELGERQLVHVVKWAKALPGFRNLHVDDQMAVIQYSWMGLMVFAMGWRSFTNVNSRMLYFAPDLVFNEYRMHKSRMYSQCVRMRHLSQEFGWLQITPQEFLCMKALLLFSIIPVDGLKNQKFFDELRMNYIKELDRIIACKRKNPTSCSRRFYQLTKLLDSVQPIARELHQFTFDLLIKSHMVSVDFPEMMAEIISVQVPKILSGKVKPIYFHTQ
AR / CBP ternary complex, sequence (Q92793 2-2442): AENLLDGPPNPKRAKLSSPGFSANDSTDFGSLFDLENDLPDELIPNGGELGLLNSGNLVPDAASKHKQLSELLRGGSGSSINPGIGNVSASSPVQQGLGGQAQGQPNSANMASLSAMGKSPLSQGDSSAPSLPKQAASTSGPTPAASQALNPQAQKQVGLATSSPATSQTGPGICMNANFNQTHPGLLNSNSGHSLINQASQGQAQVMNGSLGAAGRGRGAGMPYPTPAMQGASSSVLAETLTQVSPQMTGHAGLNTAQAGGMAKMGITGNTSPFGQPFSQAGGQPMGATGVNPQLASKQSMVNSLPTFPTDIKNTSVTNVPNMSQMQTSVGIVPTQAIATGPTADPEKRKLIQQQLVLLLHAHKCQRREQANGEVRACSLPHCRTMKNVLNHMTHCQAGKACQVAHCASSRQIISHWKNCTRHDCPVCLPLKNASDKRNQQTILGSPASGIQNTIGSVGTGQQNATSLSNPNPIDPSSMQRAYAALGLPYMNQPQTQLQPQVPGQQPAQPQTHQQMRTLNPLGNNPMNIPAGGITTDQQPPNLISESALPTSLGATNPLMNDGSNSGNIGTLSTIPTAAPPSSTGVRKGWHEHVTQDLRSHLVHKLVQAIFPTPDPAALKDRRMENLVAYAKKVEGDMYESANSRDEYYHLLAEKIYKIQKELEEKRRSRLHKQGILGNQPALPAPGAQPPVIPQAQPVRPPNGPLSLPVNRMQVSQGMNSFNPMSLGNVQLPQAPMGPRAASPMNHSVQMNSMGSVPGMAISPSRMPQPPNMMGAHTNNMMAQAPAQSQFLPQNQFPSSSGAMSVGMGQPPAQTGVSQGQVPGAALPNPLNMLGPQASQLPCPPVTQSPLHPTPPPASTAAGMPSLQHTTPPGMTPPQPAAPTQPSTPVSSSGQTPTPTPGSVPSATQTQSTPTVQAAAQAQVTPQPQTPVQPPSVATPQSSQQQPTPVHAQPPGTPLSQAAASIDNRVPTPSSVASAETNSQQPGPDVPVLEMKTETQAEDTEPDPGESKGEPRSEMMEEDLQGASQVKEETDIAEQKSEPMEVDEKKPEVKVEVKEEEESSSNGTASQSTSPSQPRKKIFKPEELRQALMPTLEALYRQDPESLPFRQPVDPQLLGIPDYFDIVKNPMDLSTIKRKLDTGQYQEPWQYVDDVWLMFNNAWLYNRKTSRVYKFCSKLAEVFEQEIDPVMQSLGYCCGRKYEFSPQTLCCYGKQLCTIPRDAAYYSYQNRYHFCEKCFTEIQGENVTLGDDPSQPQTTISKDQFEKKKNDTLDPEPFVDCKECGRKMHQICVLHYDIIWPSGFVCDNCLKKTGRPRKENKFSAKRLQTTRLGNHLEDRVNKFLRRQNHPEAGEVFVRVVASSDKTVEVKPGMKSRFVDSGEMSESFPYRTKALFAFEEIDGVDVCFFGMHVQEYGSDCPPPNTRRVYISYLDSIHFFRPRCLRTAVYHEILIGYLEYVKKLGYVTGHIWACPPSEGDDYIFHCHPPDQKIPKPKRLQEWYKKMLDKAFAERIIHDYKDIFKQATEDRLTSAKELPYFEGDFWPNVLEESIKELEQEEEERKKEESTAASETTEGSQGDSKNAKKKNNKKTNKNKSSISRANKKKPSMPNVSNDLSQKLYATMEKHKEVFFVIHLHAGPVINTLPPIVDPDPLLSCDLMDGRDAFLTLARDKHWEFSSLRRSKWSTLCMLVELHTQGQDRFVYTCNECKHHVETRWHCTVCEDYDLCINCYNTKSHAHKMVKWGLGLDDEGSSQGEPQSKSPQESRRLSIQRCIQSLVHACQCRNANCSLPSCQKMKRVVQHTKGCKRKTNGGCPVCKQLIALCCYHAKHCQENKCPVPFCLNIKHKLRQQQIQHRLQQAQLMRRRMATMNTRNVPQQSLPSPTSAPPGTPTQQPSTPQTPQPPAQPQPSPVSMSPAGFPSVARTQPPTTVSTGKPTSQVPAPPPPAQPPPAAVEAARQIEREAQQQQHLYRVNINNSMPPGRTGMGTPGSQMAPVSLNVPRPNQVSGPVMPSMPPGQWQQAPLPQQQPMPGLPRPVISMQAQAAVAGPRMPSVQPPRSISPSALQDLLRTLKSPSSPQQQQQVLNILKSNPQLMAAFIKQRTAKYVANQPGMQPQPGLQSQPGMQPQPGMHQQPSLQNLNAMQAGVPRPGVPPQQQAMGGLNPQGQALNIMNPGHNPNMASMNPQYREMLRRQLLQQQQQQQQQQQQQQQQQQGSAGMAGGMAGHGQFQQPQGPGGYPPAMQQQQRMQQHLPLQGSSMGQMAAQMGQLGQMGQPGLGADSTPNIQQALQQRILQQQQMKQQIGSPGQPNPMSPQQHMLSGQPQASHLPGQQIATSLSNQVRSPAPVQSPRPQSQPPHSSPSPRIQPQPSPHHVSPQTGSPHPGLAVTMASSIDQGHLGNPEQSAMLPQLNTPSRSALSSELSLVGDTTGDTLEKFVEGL

SMILES | EC50 (AR / CBP ternary complex) [nM] | IC50 (VCaP cells) [nM]
Cc1cc2c(N3CCN(C)c4cc(-c5cnn(C)c5)c(C#N)cc43)cc(OCC3CCN(c4ccc(C(=O)N[C@H]5CC[C@H](Oc6ccc(C#N)c(Cl)c6)CC5)nn4)CC3)cc2n(C)c1=O [Compound 37, N-[4-(3-chloro-4-cyano-phenoxy)cyclohexyl]-6-[4-[[5-[7-cyano-4-methyl-6-(1-methylpyrazol-4-yl)-2,3-dihydroquinoxalin-1-yl]-1,3-dimethyl-2-oxo-7-quinolyl]oxymethyl]-1-piperidyl]pyridazine-3-carboxamide] | > 100 | 0.1 to 1
CC(=O)N1CCc2c(c(-c3cccc4cc(-c5ccc(CC6CCN(c7ccc(C(=O)N[C@H]8CC[C@H](Oc9ccc(C#N)c(Cl)c9)CC8)nn7)CC6)nc5)ncc34)nn2C)C1 [Compound 19, 6-[4-[[5-[8-(5-acetyl-1-methyl-6,7-dihydro-4H-pyrazolo[4,3-c]pyridin-3-yl)-3-isoquinolyl]-2-pyridyl]methyl]-1-piperidyl]-N-[4-(3-chloro-4-cyano-phenoxy)cyclohexyl]pyridazine-3-carboxamide] | > 100 | ≤ 0.1
Cc1cc2c(N3CCCc4cc(-c5cnn(C)c5)c(C(F)F)cc43)cc(N3CCN(CC4CCN(c5ccc(C(=O)N[C@H]6CC[C@H](Oc7ccc(C#N)c(Cl)c7)CC6)nn5)CC4)CC3)cc2n(C)c1=O [Compound 135, N-[4-(3-chloro-4-cyano-phenoxy)cyclohexyl]-6-[4-[[4-[5-[7-(difluoromethyl)-6-(1-methylpyrazol-4-yl)-3,4-dihydro-2H-quinolin-1-yl]-1,3-dimethyl-2-oxo-7-quinolyl]piperazin-1-yl]methyl]-1-piperidyl]pyridazine-3-carboxamide] | 1 to 10 | 0.1 to 1
CC(=O)N1CCc2c(c(-c3cccc4cc(-c5cnn(C)c5)ncc34)nn2C2CCN(C(=O)C3CCN(c4ccc(C(=O)N[C@H]5CC[C@H](Oc6ccc(C#N)c(Cl)c6)CC5)cc4)CC3)CC2)C1 [Compound 164, 4-[4-[4-[5-acetyl-3-[3-(1-methylpyrazol-4-yl)-8-isoquinolyl]-6,7-dihydro-4H-pyrazolo[4,3-c]pyridin-1-yl]piperidine-1-carbonyl]-1-piperidyl]-N-[4-(3-chloro-4-cyano-phenoxy)cyclohexyl]benzamide] | < 1 | 0.1 to 1
CC(=O)N1CCc2c(c(N3CCCc4ccc(C(F)F)cc43)nn2C2CC3(C2)CN(CC2CC4(C2)CN(c2ccc(C(=O)N[C@H]5CC[C@H](Oc6ccc(C#N)c(Cl)c6)CC5)nn2)C4)C3)C1 (some centres unmarked) [Compound 43, -[6-[[6-[5-acetyl-3-[7-(difluoromethyl)-3,4-dihydro-2H-quinolin-1-yl]-6,7-dihydro-4H-pyrazolo[4,3-c]pyridin-1-yl]-2-azaspiro [3.3]heptan-2-yl]methyl]-2-azaspiro [3.3]heptan-2-yl]-N-[4-(3-chloro-4-cyano-phenoxy)cyclohexyl] pyridazine-3-carboxamide] | 1 to 10 | 0.1 to 1
CC(=O)N1CCc2c(c(N3CCCc4cc(-c5cnn(C)c5)c(C(F)F)cc43)nn2C2CCN([C@H]3CCN(c4ccc(C(=O)N[C@H]5CC[C@H](Oc6ccc(C#N)c(Cl)c6)CC5)nn4)C3)CC2)C1 [Compound 221, 6-[(3S)-3-[4-[5-acetyl-3-[7-(difluoromethyl)-6-(1-methylpyrazol-4-yl)-3,4-dihydro-2H-quinolin-1-yl]-6,7-dihydro-4H-pyrazolo[4,3-c]pyridin-1-yl]-1-piperidyl]pyrrolidin-1-yl]-N-[4-(3-chloro-4-cyano-phenoxy)cyclohexyl]pyridazine-3-carboxamide] | > 100 | 1 to 100
CC(=O)N1CCc2c(c(-c3cccc4nc(-c5cnn(CCC6CCN(c7ccc(C(=O)N[C@H]8CC[C@H](Oc9ccc(C#N)c(Cl)c9)CC8)nn7)CC6)c5)ncc34)nn2C2CCOCC2)C1 [Compound 70] | < 1 | 0.1 to 1
CC(=O)N1CCc2c(c(-c3cccc4cc(-c5ccc(CCC6CCN(c7ccc(C(=O)N[C@H]8CC[C@H](Oc9ccc(C#N)c(Cl)c9)CC8)nn7)CC6)nc5)ncc34)nn2C2CCOCC2)C1 [Compound 25, 6-[4-[2-[5-[8-(5-acetyl-1-tetrahydropyran-4-yl-6,7-dihydro-4H-pyrazolo[4,3-c]pyridin-3-yl)-3-isoquinolyl]-2-pyridyl]ethyl]-1-piperidyl]-N-[4-(3-chloro-4-cyano-phenoxy)cyclohexyl]pyridazine-3-carboxamide] | < 1 | ≤ 0.1
CC(=O)N1CCc2c(c(N3CCCc4cc(-c5cnn(C)c5)c(C(F)F)cc43)nn2C2CCN(CC3CCN(c4ccc(C(=O)N[C@H]5CC[C@H](Oc6ccc(C#N)c(Cl)c6)CC5)cc4)CC3)CC2)C1 [Compound 139, 4-[4-[[4-[5-acetyl-3-[7-(difluoromethyl)-6-(1-methylpyrazol-4-yl)-3,4-dihydro-2H-quinolin-1-yl]-6,7-dihydro-4H-pyrazolo[4,3-c]pyridin-1-yl]-1-piperidyl]methyl]-1-piperidyl]-N-[4-(3-chloro-4-cyano-phenoxy)cyclohexyl] benzamide] | < 1 | ≤ 0.1
CC(=O)N1CCc2c(c(-c3cccc4cc(-c5cnn([C@H]6CC[C@H](C7CCN(c8ccc(C(=O)N[C@H]9CC[C@H](Oc%10ccc(C#N)c(Cl)c%10)CC9)nn8)CC7)CC6)c5)ncc34)nn2C2CCOCC2)C1 [Compound 184] | 1 to 10 | 1 to 100
CC(=O)N1CCc2c(c(-c3cccc4cc(C)ncc34)nn2C2CCN(CC3CCN(c4ccc(C(=O)N[C@H]5CC[C@H](Oc6ccc(C#N)c(Cl)c6)CC5)nn4)CC3)CC2)C1 [Compound 122, -[4-[[4-[5-acetyl-3-(3-methyl-8-isoquinolyl)-6,7-dihydro-4H-pyrazolo[4,3-c]pyridin-1-yl]-1-piperidyl]methyl]-1-piperidyl]-N-[4-(3-chloro-4-cyano-phenoxy)cyclohexyl]pyridazine-3-carboxamide] | < 1 | 0.1 to 1
CC(=O)N1CCc2c(c(N3CCCc4cc(-c5cnn(C)c5)c(C(F)F)cc43)nn2C2CCC(CC3CCN(c4ccc(C(=O)N[C@H]5CC[C@H](Oc6ccc(C#N)c(Cl)c6)CC5)nn4)CC3)CC2)C1 (some centres unmarked) [Compound 155, 6-[4-[[4-[5-acetyl-3-[7-(difluoromethyl)-6-(1-methylpyrazol-4-yl)-3,4-dihydro-2H-quinolin-1-yl]-6,7-dihydro-4H-pyrazolo[4,3-c]pyridin-1-yl]cyclohexyl]methyl]-1-piperidyl]-N-[4-(3-chloro-4-cyano-phenoxy)cyclohexyl]pyridazine-3-carboxamide] | < 1 | 0.1 to 1
CC(=O)N1CCc2c(c(N3CCCc4cc(C5CC5)ncc43)nn2C2CCN(CC3CCN(c4ccc(C(=O)N[C@H]5CC[C@H](Oc6ccc(C#N)c(Cl)c6)CC5)nn4)CC3)CC2)C1 [Compound 108, 6-[4-[[4-[5-acetyl-3-(6-cyclopropyl-3,4-dihydro-2H-1,7-naphthyridin-1-yl)-6,7-dihydro-4H-pyrazolo[4,3-c]pyridin-1-yl]-1-piperidyl]methyl]-1-piperidyl]-N-[4-(3-chloro-4-cyano-phenoxy)cyclohexyl]pyridazine-3-carboxamide] | 1 to 10 | 0.1 to 1

The remaining lines, values ahead:

EC50 (AR / CBP ternary complex) [nM] | IC50 (VCaP cells) [nM] | SMILES
< 1 | ≤ 0.1 | CC(=O)N1CCc2c(c(N3CCCc4cc(C#N)ccc43)nn2C2CCN(C(=O)C3CCN(c4ccc(C(=O)N[C@H]5CC[C@H](Oc6ccc(C#N)c(Cl)c6)CC5)nn4)CC3)CC2)C1 [Compound 61, 6-[4-[4-[5-acetyl-3-(6-cyano-3,4-dihydro-2H-quinolin-1-yl)-6,7-dihydro-4H-pyrazolo[4,3-c]pyridin-1-yl]piperidine-1-carbonyl]-1-piperidyl]-N-[4-(3-chloro-4-cyano-phenoxy)cyclohexyl]pyridazine-3-carboxamide]
< 1 | ≤ 0.1 | CC(=O)N1CCc2c(c(N3CCCc4cc(-c5cnn(C)c5)c(C(F)F)cc43)nn2C2CCN(C[C@@H]3CCN(c4ccc(C(=O)N[C@H]5CC[C@H](Oc6ccc(C#N)c(Cl)c6)CC5)nn4)C[C@@H]3C)CC2)C1 [Compound 233]
< 1 | 0.1 to 1 | CC(=O)N1CCc2c(c(N3CCCc4cc(-c5ccc(CCC6CCN(c7ccc(C(=O)N[C@H]8CC[C@H](Oc9ccc(C#N)c(Cl)c9)CC8)nn7)CC6)cc5)c(C(F)F)cc43)nn2C2CCOCC2)C1 [Compound 154, 6-[4-[2-[4-[1-(5-acetyl-1-tetrahydropyran-4-yl-6,7-dihydro-4H-pyrazolo[4,3-c]pyridin-3-yl)-7-(difluoromethyl)-3,4-dihydro-2H-quinolin-6-yl]phenyl]ethyl]-1-piperidyl]-N-[4-(3-chloro-4-cyano-phenoxy)cyclohexyl]pyridazine-3-carboxamide]
< 1 | ≤ 0.1 | CC(=O)N1CCc2c(c(-c3cccc4cc(-c5ccc(N6CC(C7CCN(c8ccc(C(=O)N[C@H]9CC[C@H](Oc%10ccc(C#N)c(Cl)c%10)CC9)nn8)CC7)C6)nc5)ncc34)nn2C2CCOCC2)C1 [Compound 181]
< 1 | ≤ 0.1 | CC(=O)N1CCc2c(c(N3CCCc4cc(-c5cnn(C)c5)c(C)cc43)nn2C2CCN(C3CCC4(CC3)CN(c3ccc(C(=O)N[C@H]5CC[C@H](Oc6ccc(C#N)c(C)c6C)CC5)nn3)C4)CC2)C1 [Compound 299]
< 1 | ≤ 0.1 | CC(=O)N1CCc2c(c(N3CCCc4cc(-c5cnn(C)c5)c(C(F)F)cc43)nn2C2CCN(C[C@H]3CCN(c4ccc(C(=O)N[C@H]5CC[C@H](Oc6ccc(C#N)c(Cl)c6)CC5)nn4)C[C@H]3C)CC2)C1 [Compound 234]
